# Numbered stars: 1 amine (or outer) side, 2 acyl side, 3 side chain; on linkers, the order of the positions; unused ones are H or OH. Square brackets hold non-standard residues; d marks the D form. Peptide text beside a SMILES is read from it. * marks the point of attachment. ξ: configuration not given here. X1 = N=C1NCC(C(O)C(N[*:1])C(=O)[*:2])N1C1OC(CO)C(O)C(O)C1O; ξEnduracididine(βξ-OH,4'ξ) = N=C1NCC(C(O)C(N)C(=O)O)N1; ξPhe(4-Cl,βξ-Me) = CC(c1ccc(Cl)cc1)C(N)C(=O)O; X2 = OCC1OC(OC2C(CO)OC(*)C(O)C2O)C(O)C(O)C1O
# Columns and labels:
# Assay in all cases: In vitro antibacterial evaluation: minimum inhibitory concentration (MIC), broth dilution method
# Format in all cases: cell-based
# [1] = tested on: Enterococcus sp.
# Experimental: (§1) The minimum inhibitory concentration (MIC), the lowest concentration of the antibiotic which inhibits growth of the test organism, is determined by the broth dilution method using Muller-Hinton II […] (Baltimore Biological Laboratories) following the recommendations of the National Committee for Clinical Laboratory Standards [Methods for dilution antimicrobial susceptibility tests for bacteria that grow aerobically, approved standard M7-A2, National Committee for Clinical Laboratory Standards, Villanova, Pa].
# (§2) An inoculum level of 5×10^5 CFU/mL, and a range of antibiotic concentrations (64-0.06 μg/mL) is used. […] The test organisms include a spectrum of Gram-positive bacteria comprised of Staphylococcus sp., Streptococcus sp. and Enterococcus sp. These organisms include recent clinical isolates that are resistant to methicillin, penicillin and/or vancomycin.
# [2] = tested on: Escherichia coli; conditions: Escherichia coli (GC 4560)
# Experimental: as §1, §2
# [3] = tested on: Streptococcus sp.; conditions: 18 hours at 35° C.
# Experimental: as §1, §2
# [4] = tested on: Staphylococcus sp.; conditions: 18 hours at 35° C.
# Experimental: as §1, §2
Structure (SMILES),MIC Coagulase Negative Staphylococcus (GC 4547) [4],MIC Coagulase Negative Staphylococcus (GC 4547) ([4]; broth dilution),MIC Coagulase Negative Staphylococcus (GC 4548) [4],MIC Coagulase Negative Staphylococcus (GC 4548) ([4]; broth dilution),MIC Coagulase Negative Staphylococcus (GC 4549) [4],MIC Coagulase Negative Staphylococcus (GC 4549) ([4]; broth dilution),MIC Staphylococcus aureus (ATCC 29213) [4],MIC Staphylococcus aureus (ATCC 29213) ([4]; broth dilution),MIC Staphylococcus aureus (GC 4541) [4],MIC Staphylococcus aureus (GC 4541) ([4]; broth dilution),MIC Staphylococcus aureus (GC 4544) [4],MIC Staphylococcus aureus (GC 4544) ([4]; broth dilution),MIC Staphylococcus aureus (GC 4545) [4],MIC Staphylococcus aureus (GC 4545) ([4]; broth dilution),MIC Staphylococcus aureus-SMITH (GC 4543) [4],MIC Staphylococcus aureus-SMITH (GC 4543) ([4]; broth dilution),MIC Staphylococcus haemolyticus (GC 4546) [4],MIC Staphylococcus haemolyticus (GC 4546) ([4]; broth dilution),MIC Escherichia coli (GC 4560) [2],MIC Enterococcus faecium (GC 4557) [1],also measured
CC(c1ccccc1)C1NC(=O)CNC(=O)C(CO)NC(=O)C(CC2CNC(=N)N2C2OC(CO)C(O)C(O)C2O)NC(=O)C(CC2CNC(=N)N2)NC(=O)C(Cc2ccc(OC3OC(CO)C(OC4OC(CO)C(O)C(O)C4OCc4ccc(OCc5ccccc5)cc4)C(O)C3O)cc2)NC1=O (centres unmarked) [Example 246c],–,–,–,–,–,–,–,–,–,–,–,–,–,–,–,–,–,–,–,–,"MIC Enterococcus avium (GC 4558) ([1]; Enterococcus avium (GC 4558), 18 hours at 35° C.): 64 µg/mL; MIC Escherichia coli (GC 4560) ([2]; 18 hours at 35° C.): 32 µg/mL; MIC Streptococcus pneumoniae (GC 1894) ([3]; Streptococcus pneumoniae (GC 1894)): 64 µg/mL; MIC Streptococcus pneumoniae (GC 1894) ([3]; broth dilution, inoculum 5×10^5 CFU/mL): 64 µg/mL"
"CC(c1ccc(Cl)cc1)C1NC(=O)CNC(=O)C(CO)NC(=O)C(C(O)C2CNC(=N)N2C2OC(CO)C(O)C(O)C2O)NC(=O)C(C(O)C2CNC(=N)N2)NC(=O)C(Cc2ccc(OC3OC(CO)C(OC4OC(CO)C(O)C(O)C4O)C(O)C3O)cc2)NC1=O (stereo not drawn) [Example 262a, Cyclo[glycyl-4-chloro-β-methylphenylalanyl-O-(4-O-hexopyranosylhexopyranosyl)tyrosyl-3-(2-iminoimidazolidin-4-yl)seryl-3-(3-hexopyranosyl-2-iminoimidazolidin-4-yl)serylseryl]] (cyclo(G[ξPhe(4-Cl,βξ-Me)]Y(X2)[ξEnduracididine(βξ-OH,4'ξ)][X1]S); configuration not given here)",64 µg/mL,64 µg/mL,64 µg/mL,64 µg/mL,16 µg/mL,16 µg/mL,64 µg/mL,64 µg/mL,64 µg/mL,64 µg/mL,64 µg/mL,64 µg/mL,64 µg/mL,64 µg/mL,64 µg/mL,64 µg/mL,64 µg/mL,64 µg/mL,16 µg/mL,–,MIC Streptococcus agalactiae (GC 4564) ([3]; Streptococcus agalactiae (GC 4564)): 32 µg/mL; MIC Streptococcus pyogenes (ID-3187) ([3]; Streptococcus pyogenes (ID-3187)): 32 µg/mL
CC(C)C(=O)OCC1OC(OC2C(CO)OC(Oc3ccc(CC4NC(=O)C(Cc5ccccc5)NC(=O)CNC(=O)C(CO)NC(=O)C(C(O)C5CNC(=N)N5C5OC(CO)C(O)C(O)C5O)NC(=O)C(C(O)C5CNC(=N)N5)NC4=O)cc3)C(O)C2O)C(O)C(O)C1O (centres unmarked) [Example 283a],64 µg/mL,64 µg/mL,64 µg/mL,64 µg/mL,32 µg/mL,32 µg/mL,64 µg/mL,64 µg/mL,64 µg/mL,64 µg/mL,64 µg/mL,64 µg/mL,64 µg/mL,64 µg/mL,64 µg/mL,64 µg/mL,64 µg/mL,64 µg/mL,32 µg/mL,64 µg/mL,MIC Coagulase Negative Staphylococcus (GC 4551) [4]: 64 µg/mL; MIC Coagulase Negative Staphylococcus (GC 4551) ([4]; broth dilution): 64 µg/mL; MIC Staphylococcus aureus (GC 1131) [4]: 64 µg/mL; MIC Staphylococcus aureus (GC 1131) ([4]; broth dilution): 64 µg/mL; MIC Staphylococcus aureus (GC 3051) [4]: 64 µg/mL; MIC Staphylococcus aureus (GC 3051) ([4]; broth dilution): 64 µg/mL; MIC Staphylococcus aureus (GC 4542) [4]: 64 µg/mL; MIC Staphylococcus aureus (GC 4542) ([4]; broth dilution): 64 µg/mL
"CC(C)CC(=O)OCC1OC(OC2C(CO)OC(Oc3ccc(CC4NC(=O)C(Cc5ccccc5)NC(=O)CNC(=O)C(CO)NC(=O)C(C(O)C5CNC(=N)N5C5OC(CO)C(O)C(O)C5O)NC(=O)C(C(O)C5CNC(=N)N5)NC4=O)cc3)C(O)C2O)C(O)C(O)C1O (centres unmarked) [Example 283c, Cyclo[glycylphenylalanyl-O-[4-O-[6-O-(3-methylbutanoyl)-hexopyranosyl]hexopyranosyl]tyrosyl-3-(2-iminoimidazolidin-4-yl)seryl-3-(3-hexopyranosyl-2-iminoimidazolidin-4-yl)serylseryl]]",16 µg/mL,16 µg/mL,8 µg/mL,8 µg/mL,16 µg/mL,16 µg/mL,32 µg/mL,32 µg/mL,32 µg/mL,32 µg/mL,32 µg/mL,32 µg/mL,16 µg/mL,16 µg/mL,16 µg/mL,16 µg/mL,16 µg/mL,16 µg/mL,8 µg/mL,16 µg/mL,MIC Coagulase Negative Staphylococcus (GC 4551) [4]: 32 µg/mL; MIC Coagulase Negative Staphylococcus (GC 4551) ([4]; broth dilution): 32 µg/mL; MIC Staphylococcus aureus (GC 1131) [4]: 32 µg/mL; MIC Staphylococcus aureus (GC 1131) ([4]; broth dilution): 32 µg/mL; MIC Staphylococcus aureus (GC 3051) [4]: 32 µg/mL; MIC Staphylococcus aureus (GC 3051) ([4]; broth dilution): 32 µg/mL; MIC Staphylococcus aureus (GC 3053) [4]: 64 µg/mL; MIC Staphylococcus aureus (GC 3053) ([4]; broth dilution): 64 µg/mL; MIC Staphylococcus aureus (GC 4542) [4]: 32 µg/mL; MIC Staphylococcus aureus (GC 4542) ([4]; broth dilution): 32 µg/mL

# — patent publication US8247211B2, “Glycopeptide antibiotics” (American Cyanamid Company, priority 2001, dated 2012)
